“And” between values parts separate entries of the source, which are not always exact repeats. Equal values may be shown once.
Experiments:
[1] = target: T1, human MNK (N-acetylmannosamine kinase) (Homo sapiens, UniProt Q9Y223); test: MNK activity, coupled optical assay based on NADH consumption; assay type: biochemical
T1 construct: His; made in house; host or cells: Escherichia coli BL21-CodonPlus (DE3)-RIL
T1 sequence (Q9Y223 406-722 limits assumed): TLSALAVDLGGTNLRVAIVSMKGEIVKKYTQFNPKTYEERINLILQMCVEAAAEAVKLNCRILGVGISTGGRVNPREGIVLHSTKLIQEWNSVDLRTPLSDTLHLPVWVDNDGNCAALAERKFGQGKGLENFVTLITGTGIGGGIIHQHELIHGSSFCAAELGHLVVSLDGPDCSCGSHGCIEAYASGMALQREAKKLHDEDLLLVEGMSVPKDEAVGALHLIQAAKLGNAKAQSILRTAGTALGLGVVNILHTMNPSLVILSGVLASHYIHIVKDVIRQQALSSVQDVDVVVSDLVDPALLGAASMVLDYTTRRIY
Method: (§1) N-Acetylmannosamine kinase and N-acetylglucosamine kinase expression and […]
(§2) Human N-acetylmannosamine kinase (MNK) was expressed and purified using an established method.1 Therefore, his-tagged MNK was expressed in BL21-CodonPlus (DE3)-RIL Escherichia coli (Stragene). Purification was performed by Ni-NTA affinity chromatography, and subsequently size exclusion chromatography on a SuperdexTM HighLoad 16/600 column (GE Healthcare). […]
To evaluate their purity, protein samples were mixed with SDS-PAGE sample buffer, denatured at 90 °C for 1 min and separated by a 10% SDS-PAGE gel. Proteins were visualized with Coomassie G-250 staining solution (Biorad), and PageRuler Prestained Plus (Biorad) was used as a marker (Figure S1 ).
Figure S1. SDS-PAGE of His-tagged MNK (His-MNK) and GST-tagged GNK
(GST-GNK) after affinity chromatography and size exclusion chromatography.
Apparent molecular masses given by the marker are indicated on the left side.
1 J. Martinez, L. D. Nguyen, S. Hinderlich, R. Zimmer, E. Tauberger, W. Reutter, W. Saenger, H. Fan
2 W.A. Weihofen, M. Berger, H. Chen, W. Saenger, and S. Hinderlich, J. Mol. Biol., 2006, 364, 388.
(1 picture or pasted object on this page, not shown here)
Enzyme activity and inhibition studies using N-acetylmannosamine kinase, N-acetylglucosamine kinase and yeast hexokinase
Evaluation MNK activity in presence of the compounds 11, 12, 14b, 16b and 18b The effects of compounds 11, 12, 14b, 16b, or 18b on MNK enzyme activity were evaluated using a coupled optical assay. 55 µl reaction mixture contained the following buffers and reagents: 39.5 µl buffer A (65 mM MgCl2, 200 mM Tris-HCl, pH 8.1), 5 µl ATP (50 mM), 3.5 µl NADH (30 mM), 2 µl phosphoenolpyruvate (100 mM), 2 U pyruvate-kinase, 2 U lactate-dehydrogenase, 5 µl ManNAc of varying concentrations. Subsequently, 10 µl of the compounds 11, 12, 14b, 16b and 18b were added in varying concentrations. The reaction was initiated by adding 0.6 µg MNK in 35 µL buffer B (10 mM Tris-HCl, 150 mM NaCl, pH 8.0). Samples were incubated at 37°C. Spectrophotometric measurements of NADH concentration was performed at 340 nm. Results obtained were normalized to blanks, consisting of 55 µl reaction mixture, 10 µl H 2O and 35 µl buffer B without MNK.
GNK and hexokinase inhibition assays using compound 14b
To evaluate the specificity of the inhibitor 14b towards other sugar kinases, we performed further inhibition experiments using human GNK and hexokinase (HK) from yeast (Sigma, H-5000). 39.5 µl Buffer A (see above), 5 µl ATP (50 mM), 3.5 µl NADH (30 mM), 2 µl phosphoenolpyruvate (100 mM), 2 U pyruvate-kinase, 2 U lactate-dehydrogenase, 5 µl GlcNAc (7.5 mM, for GNK experiments), or 5 µl ManNAc (7.5 mM, for GNK experiments), or glucose (5 mM, for HK experiments), and 10 µl 14b (varying concentrations) were mixed with either 1 µg GNK or 0.2 µg HK in 35 µL buffer B. The decrease of NADH was measured in a spectrophotometer […]
5 mM for HK activity, respectively (Figure S2).
Figure S2. Inhibition of GNK and HK activity by 14b. Values are means ± SEM of […]

[2] = target: T2, human GlcNAc kinase (GNK) (Homo sapiens, UniProt Q9UJ70); test: GNK inhibition, coupled optical assay; assay type: biochemical
T2 construct: GST; made in house; host or cells: Escherichia coli BL21-CodonPlus(DE3)-RIL
T2 sequence (Q9UJ70 whole entry): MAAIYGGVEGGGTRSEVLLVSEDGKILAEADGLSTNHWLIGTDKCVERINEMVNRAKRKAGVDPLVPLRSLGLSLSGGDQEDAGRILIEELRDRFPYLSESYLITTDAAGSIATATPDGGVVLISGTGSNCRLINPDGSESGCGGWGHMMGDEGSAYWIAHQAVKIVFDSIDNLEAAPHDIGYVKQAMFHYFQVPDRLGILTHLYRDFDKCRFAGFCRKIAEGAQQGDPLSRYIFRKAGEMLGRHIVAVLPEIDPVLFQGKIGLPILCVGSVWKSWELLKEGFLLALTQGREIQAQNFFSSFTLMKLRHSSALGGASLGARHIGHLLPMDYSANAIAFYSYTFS
Description: With the potent diselenide compound 14b in hand, we further studied the binding properties of this potent MNK inhibitor, which is to our knowledge the strongest MNK inhibitor reported to date. Diselenide 14b inhibited MNK activity in a dose dependent manner (Fig. 2A). […] Additionally, we tested if diselenide 14b influenced the GNE activity of the bifunctional GNE/MNK. […] To evaluate the specificity of the inhibitor towards other sugar kinases, we performed further inhibition studies using human GlcNAc kinase (GNK) and hexokinase (HK) from yeast (details in ESI ^†).
as §1, §2
Evaluation MNK activity in presence of the compounds 11, 12, 14b, 16b and 18b The effects of compounds 11, 12, 14b, 16b, or 18b on MNK enzyme activity were evaluated using a coupled optical assay. […]

[3] = Stability of the diselenide towards thiol reducing agents, 77Se NMR; assay type: physicochemical
Method: At this stage, we also wanted to evaluate the stability of the diselenide 14b in presence of thiol-containing reducing agents like dithiothreitol (DTT) or glutathione (GSH) to address the application of our compounds in living cells. Therefore, the possible reduction of the diselenide bond was monitored by ^77Se NMR using a solution of 60 mM concentration of 14b in an aqueous saturated DTT solution at room temperature. Immediately after the addition of 14b to the DTT solution, a characteristic signal for the selenol compound at –48.1 ppm was observed and a major peak at 294 ppm related to the diselenide. Concretely, the integration of diselenide/selenol peaks gave a 90 : 10 ratio (details in ESI ^†).

Q: Which “mode of inhibition towards ManNAc” value ([1]; 14b 25 μM, different concentrations of ManNAc) does the source give for `CC(=O)N[C@@H]1C(O)O[C@H](C[Se][Se]C[C@H]2OC(O)[C@@H](NC(C)=O)[C@@H](O)[C@@H]2O)[C@@H](O)[C@@H]1O` (stereo partly drawn) [Compound 14b] here?
A: Its value is “competitive inhibition”.

Q: What about the Ki ([1]; 14b 25 μM, different concentrations of ManNAc, Lineweaver-Burk plot, read-out: inhibitor constant (Ki)) of the same compound?
A: The Ki was 15.7 µM.

Q: And the IC50 ([1]; purified human MNK, ManNAc 125 μM, ATP, means ± SEM, read-out: IC50 for MNK inhibition)?
A: The IC50 was 8.5 µM.

Q: What about the IC50 [2] of the same compound?
A: Its IC50 is ~1700 µM and 1700 µM.

Q: And the “species detected by 77Se NMR” value ([3]; 60 mM in aqueous saturated DTT solution, between 15 min and 5 h)?
A: Its value is “only signals from the diselenide were detected”.

Q: What about the “species detected by 77Se NMR” value ([3]; 60 mM in saturated GSH solution) of the same compound?
A: The value was “only diselenide 14b was detected”.

Source: publication PMC6013775, “Inhibition of the key enzyme of sialic acid biosynthesis by C6-Se modified N-acetylmannosamine analogs” (Chemical Science, 2016)
